Publication PMC11375794, “Discovery of new Hsp90–Cdc37 protein–protein interaction inhibitors: in silico screening and optimization of anticancer activity” (RSC Advances, 2024)

Experiments:
[1] = tested on: Ewing sarcoma cell line SK-N-MC; assay: MTS cell viability (antiproliferative) assay in SK-N-MC; assay type: cell-based; conditions: Homo sapiens, SK-N-MC, 72 hours, mean ± SD
Experimental: Hormone-positive breast cancer cell line MCF-7 (ATCC-HTB-22; ATCC) was grown in Dulbecco's Modified Eagle's Medium (DMEM), while Ewing sarcoma cell line SK-N-MC (a kind gift from Beat Schäfer) and THP-1 (ATCC-TIB-202; ATCC) cells were grown in Roswell Park Memorial Institute (RPMI) 1640. The medium was supplemented with 10% heat-inactivated fetal bovine serum (Gibco, Thermo Fisher Scientific, Waltham, MA, USA), 100 U per mL penicillin, 100 μg per mL streptomycin, and 2 mM L-glutamine (all from Sigma-Aldrich, St. Louis, MO, USA). All cell lines were incubated at 37 °C in a 5% CO2 atmosphere.
The antiproliferative activity of the compounds was evaluated against MCF-7 (ATCC-HTB-22; ATCC), SK-N-MC (a kind gift from Beat Schäfer) and THP-1 (ATCC-TIB-202; ATCC) cancer cell lines using the MTS assay (Promega, Madison, WI, USA). Cells were seeded in 96-well plates at a density of 2 × 10^4 cells per mL in 100 μL of growth medium for THP-1 and were treated with compounds and controls directly, while 3 × 10^3 cells per mL for MCF-7 and SK-N-MC were seeded in 100 μL of growth medium and allowed to adhere overnight following the treatment. In all cases the cells were treated with respective newly prepared compounds, positive controls (17-DMAG for MCF-7 and SK-N-MC; PU-H71 for THP-1) and a vehicle control (0.5% DMSO). The incubation time after treatment was 72 hours, then CellTiter96® Aqueous One Solution Reagent (Promega, Madison, WI, USA) was added to each well. Following a 3 hours incubation, absorbance was measured at 492 nm using BioTek's Synergy™ 4 Hybrid Microplate Reader (Winooski, VT, USA). The measurements were performed in two biological repetitions and each time the experiment was performed in a triplicate. The IC50 values, representing the concentration of inhibitor required for half-maximal inhibition, are the average of three independent experiments and were calculated using GraphPad Prism 9.5.0 software (San Diego, CA, USA).

full-length Hsp90β = target: T1, full-length Hsp90β (Homo sapiens, UniProt P08238); assay: Ligand-observed protein NMR (STD, trNOESY) with Hsp90β; assay type: binding; conditions: for STD amplification factor (AMP): Hsp90β : ligand 1 : 200
T1 construct: For the protein expression of full-length Hsp90β, we received plasmids as a kind gift; made in house; host or cells: Escherichia coli strain Rosetta
Experimental: High-resolution NMR spectra of 13g were recorded using a Bruker Avance Neo 600 MHz spectrometer with a cryoprobe at 25 °C. Data collection employed pulse sequences from the Bruker library, and analysis was conducted using Bruker Topspin 4.2.0. The residual water signal was suppressed by excitation sculpting[54] with a 5 ms selective pulse, and a T1ρ filter of 100 ms was used to remove background protein resonances. The ^1H spectral widths were set at 5263 Hz. NMR samples were prepared in a buffer containing 50 mM potassium phosphate (pD 7.5), 100 mM KCl in D2O, 5 mM MgSO4, 2 mM DTT-d10, 0.02% NaN3, and 2% DMSO-d6. Full proton assignment (see ESI Fig. S6 and Table S2 ^†) was achieved using TOCSY, NOESY, ROESY, and HSQC spectra. The ^1H STD spectra were recorded with a protein : ligand ratio of 1 : 200, with protein and ligand concentrations of […] and 3 mM.
For the ^1H STD ligand epitope mapping experiments,[55] 65 536 data points (6.23 s and acquisition time) were used, with a relaxation delay of 1.63 s and 5120 scans. A short protein saturation time of 0.5 s was utilized to minimize the effect of relaxation on the STD amplification factors.[56] Selective on-resonance saturation of Hsp90β was performed at −0.827 ppm, with the transmitter offset referenced to 4.70 ppm. Off-resonance irradiation for the reference spectrum was applied at 30 ppm. The spectra were zero-filled and apodized using an exponential line-broadening function of 3 Hz. Errors in the STD amplification factor were estimated using the specified formula:[57] [drawing 46] NSTD and NREF are noise levels in STD and reference spectra. ISTD and IREF are signal intensities in STD and reference spectra. The relative errors of the STD amplification factors (Tables S3 and S6 ^†) for all protons are below 4%.
The trNOESY[58] spectra were recorded with 4096 data points in t2, 64 scans, 360 complex points in t1, and a relaxation delay of 1.5 s. […] The spectra were apodized with a squared sine bell function shifted by π/2 in both dimensions. Distances for 13g were calculated from the cross-peak volumes, assuming the integrated intensity of proton pairs 2′, 4′ and 1′, 5′ in the para-substituted phenyl ring with a distance of 2.5 Å and that the distances of the protons in pyrimidine ring are the same.

T1 sequence (P08238 whole entry): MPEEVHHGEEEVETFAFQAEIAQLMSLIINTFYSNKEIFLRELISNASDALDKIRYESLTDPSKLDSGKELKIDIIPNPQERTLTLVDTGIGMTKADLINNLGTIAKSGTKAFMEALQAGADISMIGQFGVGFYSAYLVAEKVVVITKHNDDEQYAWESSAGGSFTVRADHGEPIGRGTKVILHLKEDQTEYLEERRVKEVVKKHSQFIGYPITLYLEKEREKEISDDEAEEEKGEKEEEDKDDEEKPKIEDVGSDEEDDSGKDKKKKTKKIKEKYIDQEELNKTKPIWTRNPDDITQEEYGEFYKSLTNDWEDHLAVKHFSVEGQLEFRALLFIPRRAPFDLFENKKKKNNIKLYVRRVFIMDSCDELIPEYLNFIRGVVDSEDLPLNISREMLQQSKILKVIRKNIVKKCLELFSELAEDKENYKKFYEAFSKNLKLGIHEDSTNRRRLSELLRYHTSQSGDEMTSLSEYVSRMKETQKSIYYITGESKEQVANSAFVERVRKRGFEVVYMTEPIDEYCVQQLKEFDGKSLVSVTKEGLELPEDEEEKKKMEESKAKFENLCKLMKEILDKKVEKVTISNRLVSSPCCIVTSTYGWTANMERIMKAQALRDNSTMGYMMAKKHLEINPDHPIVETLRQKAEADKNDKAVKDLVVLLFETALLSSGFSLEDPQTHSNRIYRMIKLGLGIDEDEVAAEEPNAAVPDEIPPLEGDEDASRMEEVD

Row | IC50 [1] [µM] | STD amplification factor (AMP) (full-length Hsp90β; proton 1'') | STD amplification factor (AMP) (full-length Hsp90β; proton 3'') | STD amplification factor (AMP) (full-length Hsp90β; protons 1', 5') | STD amplification factor (AMP) (full-length Hsp90β; protons 1, 5) | STD amplification factor (AMP) (full-length Hsp90β; protons 2', 4') | STD amplification factor (AMP) (full-length Hsp90β; protons 2,3,4) | SMILES | binding to Hsp90β by transferred NOESY (trNOESY) (full-length Hsp90β; negative NOEs in the presence of Hsp90β)
1 | 12.8 ± 0.9 |  |  |  |  |  |  | CN(CCOc1ccccc1)C(=O)c1csc(Nc2cc(N3CCNCC3)ncn2)n1 [Compound 8c, N-Methyl-N-(2-phenoxyethyl)-2-((6-(piperazin-1-yl)pyrimidin-4-yl)amino)thiazole-4-carboxamide] | 
2 | 20 ± 1.5 | 0.83 | 4.88 | 1.75 | 2.18 | 1.78 | 2.14 | O=C(NCCOc1ccccc1)c1ccc(Nc2cc(N3CCNCC3)ncn2)cc1 [Compound 13g, N-(2-Phenoxyethyl)-4-((6-(piperazin-1-yl)pyrimidin-4-yl)amino)benzamide] | confirmed
